Measurements published in US9545105B2, “1-(heterocyclic carbonyl) piperidines” (BAYER INTELLECTUAL PROPERTY GMBH, priority 2010, dated 2017).

Columns and labels:
Venturia inaequalis = experiment: In vivo preventive test on Venturia inaequalis (apple scab); conditions: 100 ppm of active ingredient, evaluated 10 days after inoculation
Procedure: Solvent: 24.5 parts by weight of acetone • 24.5 parts by weight of N,N-dimethylacetamide Emulsifier: 1 part by weight of alkylaryl polyglycol ether To produce a suitable preparation of active compound, 1 part by weight of active compound is mixed with the stated amounts of solvent and emulsifier, and the concentrate is diluted with water to the desired concentration. To test for preventive activity, young plants are sprayed with the preparation of active compound at the stated rate of application. After the spray coating has dried on, the plants are inoculated with an aqueous conidia suspension of the causal agent of apple scab (Venturia inaequalis) and then remain for 1 day in an incubation cabinet at approximately 20° C. and a relative atmospheric humidity of 100%. The plants are then placed in a greenhouse at approximately 21° C. and a relative atmospheric humidity of approximately 90%. The test is evaluated 10 days after the inoculation. 0% means an efficacy which corresponds to that of the untreated control, while an efficacy of 100% means that no disease is observed.

[1] = log P by HPLC on reversed-phase column (C 18), EEC Directive 79/831 Annex V.A8; type: physicochemical; conditions: HPLC on reversed-phase column (C 18); 40° C.; 0.1% aqueous formic acid and acetonitrile; linear gradient 10% to 90% acetonitrile
Summary of the method: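 Column at 40° C; mobile phases 0.1% aqueous formic acid and acetonitrile, linear gradient 10% to 90% acetonitrile. Calibrated with unbranched alkan-2-ones (3 to 16 carbons) of known log P; values from retention times by linear interpolation between two successive alkanones.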

Puccinia triticina = experiment: In vivo preventive test on Puccinia triticina (wheat); conditions: 500 ppm of active ingredient, evaluated 8 days after inoculation
Procedure: (§1) Solvent: 49 parts by weight of N,N-dimethylacetamide Emulsifier: 1 part by weight of alkylaryl polyglycol ether To produce a suitable preparation of active compound, 1 part by weight of active compound or active compound combination is mixed with the stated amounts of solvent and emulsifier, and the concentrate is diluted with water to the desired concentration. To test for preventive activity, young plants are sprayed with the preparation of active compound or active compound combination at the stated rate of application. After the spray coating has been dried, the plants are sprayed with a spore suspension of Puccinia triticina. The plants remain for 48 hours in an incubation cabinet at approximately 20° C. and a relative atmospheric humidity of approximately 100%. The plants are placed in the greenhouse at a temperature of approximately 20° C. and a relative atmospheric humidity of approximately 80%. The test is evaluated 8 days after the inoculation. 0% means an efficacy which corresponds to that of the untreated control, while an efficacy of 100% means that no disease is observed.

[2] = tested on: Fusarium nivale (var. majus); experiment: In vivo preventive test on Fusarium nivale (wheat); conditions: 500 ppm of active ingredient, evaluated 5 days after inoculation
Procedure: Solvent: 49 parts by weight of N,N-dimethylacetamide Emulsifier: 1 part by weight of alkylaryl polyglycol ether To produce a suitable preparation of active compound, 1 part by weight of active compound or active compound combination is mixed with the stated amounts of solvent and emulsifier, and the concentrate is diluted with water to the desired concentration. To test for preventive activity, young plants are sprayed with the preparation of active compound or active compound combination at the stated rate of application. After the spray coating has been dried, the plants are slightly injured by using a sandblast and afterwards they are sprayed with a conidia suspension of Fusarium nivale (var. majus). The plants are placed in the greenhouse under a translucent incubation cabinet at a temperature of approximately 10° C. and a relative atmospheric humidity of approximately 100%. The test is evaluated 5 days after the inoculation. 0% means an efficacy which corresponds to that of the untreated control, while an efficacy of 100% means that no disease is observed.

[3] = tested on: Blumeria graminis f. sp. hordei; experiment: In vivo preventive test on Blumeria graminis (barley); conditions: 500 ppm of active ingredient, evaluated 7 days after inoculation
Procedure: Solvent: 49 parts by weight of N,N-dimethylacetamide Emulsifier: 1 part by weight of alkylaryl polyglycol ether To produce a suitable preparation of active compound, 1 part by weight of active compound or active compound combination is mixed with the stated amounts of solvent and emulsifier, and the concentrate is diluted with water to the desired concentration. To test for preventive activity, young plants are sprayed with the preparation of active compound or active compound combination at the stated rate of application. After the spray coating has been dried, the plants are dusted with spores of Blumeria graminis f. sp. hordei. The plants are placed in the greenhouse at a temperature of approximately 18° C. and a relative atmospheric humidity of approximately 80% to promote the development of mildew pustules. The test is evaluated 7 days after the inoculation. 0% means an efficacy which corresponds to that of the untreated control, while an efficacy of 100% means that no disease is observed.

Septoria tritici = experiment: In vivo preventive test on Septoria tritici (wheat); conditions: 500 ppm of active ingredient, evaluated 21 days after inoculation
Procedure: as §1, with “suspension of Septoria tritici. The plants” for “suspension of Puccinia triticina. The plants”, “of approximately 100% and afterwards for 60 hours at approximately 15° C. in a translucent incubation cabinet at a relative atmospheric humidity of approximately 100%. The” for “of approximately 100%. The”, “of approximately 15° C. and” for “of approximately 20° C. and”, “is evaluated 21 days after” for “is evaluated 8 days after”

Pyrenophora teres = experiment: In vivo preventive test on Pyrenophora teres (barley); conditions: 500 ppm of active ingredient, evaluated 7-9 days after inoculation
Summary of the method: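 Young barley plants sprayed with compound in DMF/alkylaryl polyglycol ether emulsion; inoculated with P. teres spores one day later. 48 h at 22 °C, 100% humidity, then greenhouse ~20 °C, ~80% humidity; efficacy scored 7-9 days post-inoculation, 0% = untreated, 100% = no disease.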

| SMILES | Efficacy (Venturia inaequalis) | logP [1] | Efficacy (Puccinia triticina) | Efficacy [2] | Efficacy [3] | Efficacy (Septoria tritici) | Efficacy (Pyrenophora teres) |
| --- | --- | --- | --- | --- | --- | --- | --- |
| Cc1cc(C)cc(C2CCCCN2C(=O)c2c(C)nn(C)c2F)c1 (stereo not drawn) [Example 10] | 100% | 3.23 | 88% | 88% | 88% | 70% | 100% |
| CCc1nn(C)c(F)c1C(=O)N1CCCCC1c1cc(C)cc(C)c1 (stereo not drawn) [Example 11] | 100% | 3.62 | 100% | 83% | 80% | 100% | 100% |
| CCc1nn(C)c(F)c1C(=O)N1CCCCC1c1ccc(Cl)cc1 (stereo not drawn) [Example 54] | 98% | 3.35 | 100% | 71% | 70% | 100% | 100% |
| CCC(c1ccccc1)C1CCCCN1C(=O)c1c(C(F)F)nn(C)c1F (stereo not drawn) [Example 136] | 100% | 3.59 |  | 86% | 100% | 100% | 100% |
| CCC(c1ccccc1)C1CCCCN1C(=S)c1c(C(F)F)nn(C)c1F (stereo not drawn) [Example 140] | 100% | 4.39 |  | 71% | 100% | 100% | 100% |
